Patent publication US10676470B2, “Inhibitors of lysine gingipain” (priority 2014, dated 2020)
Entries after “also recorded” stand apart in the source; their conditions may differ.

Key:
[1] = system: differentiated SHSY-5Y cells; assay: Gingipain-induced death of differentiated SH-SY5Y cells; assay type: cell-based; settings: 100 nM Kgp and/or RgpB for 24 hours
Description: SH-SY5Y neuroblastoma cells were cultured and differentiated in the presence of 5 uM retinoic acid based on established methods [Saberi S., et al. Cell Mol Neurobiol 2013. 33: 747-751]. Differentiation into neuronal cells was verified by observation of neurite outgrowth. The differentiated cells were exposed to 100 nM Kgp and/or RgpB for 24 hours, in the presence or absence of Kgp inhibitors. Results were recorded using a digital microscope camera (FIG. 1C, FIG. 2C). Gingipains are toxic to cells while COR compounds prevent the cytotoxicity.

[2] = system: abeta 42; assay: Brain abeta 42 ELISA in mice orally infected with P. gingivalis; assay type: in vivo; settings: Balb/cJ mice, oral W83 P. gingivalis for 42 days; compound subcutaneously three times per day on days 21-42
Text: Female Balb/cJ mice were obtained from Taconic and allowed to acclimate. 43-44 week old mice were challenged orally with 10^9 CFU W83 P. gingivalis or a P. gingivalis strain lacking expression of Kgp every other day for 42 days. Compound 2 or vehicle (2% DMSO) was given subcutaneously three times per day on days 21-42. On day 42 mice were sacrificed and the brain removed and frozen. A sample including hippocampal tissue was lysed in RIPA buffer with protease inhibitors and analyzed for Abeta42 expression with the Amyloid beta 42 ELISA Kit, Mouse (Life Technologies).

[3] = system: SHSY5Y cells; assay: P. gingivalis-induced toxicity in SHSY5Y cells; assay type: cell-based; settings: SHSY5Y cells in vitro, compared to the antibiotic moxifloxacin
[4] = biological target: lysine gingipain (Kgp) (Porphyromonas gingivalis (strain ATCC 33277 / DSM 20709 / CIP 103683 / JCM 12257 / NCTC 11834 / 2561), UniProt B2RLK2); assay: Fluorogenic lysine gingipain inhibition assay; assay type: biochemical; settings: 0.1 nM Kgp, 10 uM Z-His-Glu-Lys-MCA, 90 minutes, 37° C., pH 7.5
Description: The capacities of compounds of the present invention to inhibit the activity of lysine gingipain were measured in a fluorogenic assay similar to those described in Barret Biochemical Journal. 1980, 187(3), 909. The specific assay conditions were as follows. Buffer: pH=7.5, 100 mM Tris-HCl, 75 mM NaCl, 2.5 mM CaCl2, 10 mM cysteine, 1% DMSO after all additions. Protein: 0.1 nM Kgp, isolated from culture of Porphyromonas gingivalis, as described in Pike et al. J. Biol. Chem. 1994, 269(1), 406, and Potempa and Nguyen. Current Protocols in Protein Scienc. 2007, 21.20.1-21.20.27. Fluorogenic substrate: 10 uM Z-His-Glu-Lys-MCA. Time=90 minutes. Temperature=37° C. Each compound: 10 concentrations, starting at either 100 uM or 100 nM, with lower concentrations generated by serial 3-fold dilutions. By testing a range of concentrations for each compound, the concentration required to inhibit the activity of lysine gingipain by 50% (the “IC50”) was determined. Under the described assay conditions, signal-to-noise was excellent, and Z factor was greater than 0.6.
The inhibitory of activity of compounds described herein was tested against Kgp, RgpB, and trypsin.

`NCCCC[C@H](NC(=O)C1CCCCC1)C(=O)c1nc2ccccc2s1` [Compound 2, N-[(1S)-5-amino-1-(1,3-benzothiazole-2-carbonyl)pentyl]cyclohexanecarboxamide] was tested, and the “prevention of gingipain-induced cell death” value (from here on “prevention”) [1] was “prevents gingipain-induced death; also recorded: more effective; also recorded: effective at preventing cell death” and the “brain levels of abeta 42 (ELISA)” value [2] was “resolved; also recorded: increase in abeta42 that was not apparently”.
In the case of `NCCCC[C@H](NC(=O)c1ccccc1)C(=O)c1nc2ccccc2s1` [Compound 1, N-[(1S)-5-amino-1-(1,3-benzothiazole-2-carbonyl)pentyl]benzamide], the “prevention” value [1] is reported as “prevents gingipain-induced death; also recorded: effective at preventing cell death”.
With `NCCCC[C@H](NC(=O)C1CCCC1)C(=O)COc1c(F)c(F)cc(F)c1F` [Compound 43, N-[(1S)-5-amino-1-[2-(2,3,5,6-tetrafluorophenoxy)acetyl]pentyl]cyclopentanecarboxamide] the “protection from P. gingivalis-induced toxicity” value [3] was “protects SHSY5Y cells from P. gingivalis-induced toxicity”.
With `NCCCC[C@H](NC(=O)[C@H]1CCCN(C(=O)CCc2ccccc2)C1)C(=O)c1nc2ccccc2s1` [Compound 3, (3S)—N-[(1S)-5-amino-1-(1,3-benzothiazole-2-carbonyl)pentyl]-1-(3-phenylpropanoyl)piperidine-3-carboxamide] the “prevention” value [1] was “does not”.
With `NCCCC[C@H](NC(=O)[C@@H]1CCCN(C(=O)CCc2ccccc2)C1)C(=O)c1nc2ccccc2s1` [Compound 4, (3R)—N-[(1S)-5-amino-1-(1,3-benzothiazole-2-carbonyl)pentyl]-1-(3-phenylpropanoyl)piperidine-3-carboxamide] the IC50 [4] was 1 to 10 nM, the “prevention” value [1] was “prevents gingipain-induced death” and the “prevention” value ([1]; listed as 2-(N—[N-(3-phenylpropanoyl)-(R)-nipecotinyl]-(R)-lysinyl)-benzothiazole) was “effective at preventing cell death”.
